Assay results as given in patent publication US10464978B2, “Peptides and combination of peptides for use in immunotherapy against ovarian cancer and other cancers” (immatics biotechnologies GmbH, priority 2015, dated 2019).

Test system: CD8+ T cells
Test: In vitro T-cell priming with aAPCs loaded with peptide/MHC and anti-CD28, pMHC multimer readout (in vitro immunogenicity)
Assay type: cell-based, human
Conditions: HLA-A*02, healthy donors
Procedure: In an aspect, the peptides are pre-screened for immunogenicity before being included in the warehouse. By way of example, and not limitation, the immunogenicity of the peptides included in the warehouse is determined by a method comprising in vitro T-cell priming through repeated stimulations of CD8+ T cells from healthy donors with artificial antigen presenting cells loaded with peptide/MHC complexes and anti-CD28 antibody.
In order to obtain information regarding the immunogenicity of the TUMAPs of the present invention, the inventors performed investigations using an in vitro T-cell priming assay based on repeated stimulations of CD8+ T cells with artificial antigen presenting cells (aAPCs) loaded with peptide/MHC complexes and anti-CD28 antibody.
In order to perform in vitro stimulations by artificial antigen presenting cells loaded with peptide-MHC complex (pMHC) and anti-CD28 antibody, the inventors first isolated CD8+ T cells from fresh HLA-A*02 leukapheresis products via positive selection using CD8 microbeads (Miltenyi Biotec, Bergisch-Gladbach, Germany) of healthy donors obtained from the University clinics Mannheim, Germany, after informed consent.
PBMCs and isolated CD8+ lymphocytes were incubated in T-cell medium (TCM) until use consisting of RPMI-Glutamax (Invitrogen, Karlsruhe, Germany) supplemented with 10% heat inactivated human AB serum (PAN-Biotech, Aidenbach, Germany), 100 U/ml Penicillin/100 μg/ml Streptomycin (Cambrex, Cologne, Germany), 1 mM sodium pyruvate (CC Pro, Oberdorla, Germany), 20 μg/ml Gentamycin (Cambrex). 2.5 ng/ml IL-7 (PromoCell, Heidelberg, Germany) and 10 U/ml IL-2 (Novartis Pharma, Nürnberg, Germany) were also added to the TCM at this step.
Generation of pMHC/anti-CD28 coated beads, T-cell stimulations and readout was performed in a highly defined in vitro system using four different pMHC molecules per stimulation condition and 8 different pMHC molecules per readout condition.
The purified co-stimulatory mouse IgG2a anti human CD28 Ab 9.3 (Jung et al., 1987) was chemically biotinylated using Sulfo-N-hydroxysuccinimidobiotin as recommended by the manufacturer (Perbio, Bonn, Germany). Beads used were 5.6 μm diameter streptavidin coated polystyrene particles (Bangs Laboratories, Illinois, USA).
pMHC used for positive and negative control stimulations were A*0201/MLA-001 (peptide […] (SEQ ID NO. 664) from modified Melan-A/MART-1) and A*0201/DDX5-001 ([…] from DDX5, SEQ ID NO. 665), respectively.
800.000 beads/200 μl were coated in 96-well plates in the presence of 4×12.5 ng different biotin-pMHC, washed and 600 ng biotin anti-CD28 were added subsequently in a volume of 200 μl. Stimulations were initiated in 96-well plates by co-incubating […] CD8+ T cells with 2×10^5 washed coated beads in 200 μl TCM supplemented with 5 ng/ml IL-12 (PromoCell) for 3 days at 37° C. Half of the medium was then exchanged by fresh TCM supplemented with 80 U/ml IL-2 and incubating was continued for 4 days at 37° C. This stimulation cycle was performed for a total of three times. For the pMHC multimer readout using 8 different pMHC molecules per condition, a two-dimensional combinatorial coding approach was used as previously described (Andersen et al., 2012) with minor modifications encompassing coupling to 5 different fluorochromes. Finally, multimeric analyses were performed by staining the cells with Live/dead near IR dye (Invitrogen, Karlsruhe, Germany), CD8-FITC antibody clone SK1 (BD, Heidelberg, Germany) and fluorescent pMHC multimers. For analysis, a BD LSRII SORP cytometer equipped with appropriate lasers and filters was used. Peptide specific cells were calculated as percentage of total CD8+ cells. Evaluation of multimeric analysis was done using the FlowJo software (Tree Star, Oregon, USA). In vitro priming of specific multimer+ CD8+ lymphocytes was detected by comparing to negative control stimulations. […]

| Substance | donors (percentage of positive donors) | wells (percentage of positive wells) |
| --- | --- | --- |
| 662 (KIQEILTQV; listed as Homo sapiens) [compound 662] | +++ (50%-69% = +++) | + (<20% = +) |
| 283 (ALYIGDGYVIHLA; listed as Homo sapiens) [compound 283] | +++ (50%-69% = +++) | + (<20% = +) |
| 663 (KIQEMQHFL; listed as Homo sapiens) [compound 663] | +++ (50%-69% = +++) | + (<20% = +) |
| 659 (ILFPDIIARA; listed as Homo sapiens) [compound 659] | +++ (50%-69% = +++) | + (<20% = +) |
| 652 (TLWYRAPEV; listed as Homo sapiens) [compound 652] | ++++ (> = 70% = ++++) | +++ (50%-69% = +++) |
| 648 (LLWGNAIFL; listed as Homo sapiens) [compound 648] | +++ (50%-69% = +++) | ++ (20%-49% = ++) |

Target: HLA-A*02:01 (Homo sapiens, UniProt P04439, D140Y/D185E/D98H/E176V/E277Q/G131W/G231S/I119V/I121R/I166T/I218V/L300P/L318F/N151K/N90K/P208A/P217A/Q86G/Q94H/R138H/R169H/T345S)
Test: MHC binding assay: UV-ligand exchange with beta2m ELISA (peptide exchange yield)
Conditions: binding to HLA-A*02:01
Method in brief: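 Peptide-MHC complexes formed by UV-ligand exchange, a UV-cleavable peptide being replaced by the candidate peptide. Exchange products diluted 100-fold, captured on streptavidin-coated plates for 1h at 37° C, then detected with 2 ug/ml HRP anti-β2m (1h, 37° C) and TMB, absorbance 450 nm; value is exchange yield.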

| Peptide exchange (MHC class I binding score, peptide exchange yield) | Substance |
| --- | --- |
| “+++” (≥50 = +++) | 283 (ALYIGDGYVIHLA; listed as Homo sapiens) [compound 283] |
